In US20150376172A1, “FLUORO-[1,3]OXAZINES AS BACE1 INHIBITORS” (HOFFMANN-LA ROCHE INC., priority 2013, published 2015):
pIC50: −log10 of the molar value.

Target: T1, BACE1 (Homo sapiens, UniProt P56817)
T1 construct: endogenous in cells; host or cells: HEK293 APP cells
Assay: Cellular Aβ-lowering assay (Abeta 40 AlphaLISA)
Type: cell-based
Conditions: HEK293 APP cells; 18-20 hrs incubation; Aβ 40 in culture supernatants by AlphaLISA; read-out: BACE1 cell act. Aβ40 IC50
Description: Cellular Aβ-lowering assay:
The Abeta 40 AlphaLISA Assay can be used. The HEK293 APP cells were seeded in 96 well Microtiter plates in cell culture medium (Iscove's, plus 10% (v/v) fetal bovine serum, penicillin/streptomycin) to about 80% confluency and the compounds were added at a 3× concentration in ⅓ volume of culture medium (final DMSO concentration was kept at 1% v/v). After 18-20 hrs incubation at 37° C. and 5% CO2 in a humidified incubator, the culture supernatants were harvested for the determination of Aβ 40 concentrations using Perkin-Elmer Human Amyloid beta 1-40 (high specificity) Kit (Cat#AL275C).
In a Perkin-Elmer White Optiplate-384 (Cat#6007290), 2 ul culture supernatants were combined with 2 μl of a 10× AlphaLISA Anti-hAβAcceptor beads+Biotinylated Antibody Anti-Aβ1-40 Mix (50 μg/mL/5 nM). After 1 hour room temperature incubation, 16 μl of a 1.25× preparation of Streptavidin (SA) Donor beads (25 μg/mL) were added and incubated for 30 minutes in the Dark. Light Emission at 615 nm was then recorded using EnVision-Alpha Reader. Levels of Aβ 40 in the culture supernatants were calculated as percentage of maximum signal (cells treated with 1% DMSO without inhibitor). The IC50 values were calculated using the Excel XLfit software.

T1 sequence (P56817 46-501): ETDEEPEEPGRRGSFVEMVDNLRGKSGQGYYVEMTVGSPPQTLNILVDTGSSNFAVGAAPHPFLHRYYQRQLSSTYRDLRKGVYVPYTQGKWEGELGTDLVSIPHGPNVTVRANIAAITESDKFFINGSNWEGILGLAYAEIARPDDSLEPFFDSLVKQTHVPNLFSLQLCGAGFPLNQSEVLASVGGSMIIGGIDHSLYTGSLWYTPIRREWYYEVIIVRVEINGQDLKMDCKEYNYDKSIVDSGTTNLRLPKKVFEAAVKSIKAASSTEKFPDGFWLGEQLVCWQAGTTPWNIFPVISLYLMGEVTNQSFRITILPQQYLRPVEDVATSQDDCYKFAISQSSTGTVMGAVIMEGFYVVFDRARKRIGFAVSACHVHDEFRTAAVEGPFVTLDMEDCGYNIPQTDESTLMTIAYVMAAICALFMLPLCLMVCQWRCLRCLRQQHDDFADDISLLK

pIC50 | SMILES
6.37 | NC1=N[C@](CF)(c2cc(C#Cc3ncc(Cl)cn3)ccc2F)C[C@@H](C(F)(F)F)O1 [Example 63, (4S,6S)-4-[5-[2-(5-Chloropyrimidin-2-yl)ethynyl]-2-fluorophenyl]-4-(fluoromethyl)-6-(trifluoromethyl)-5,6-dihydro-1,3-oxazin-2-amine]
6.57 | Cc1cc(C#Cc2ccc(F)c([C@]3(CF)C[C@@H](C(F)(F)F)OC(N)=N3)c2)sn1 [Example 64, (4S,6S)-4-(2-Fluoro-5-((3-methylisothiazol-5-yl)ethynyl)phenyl)-4-(fluoromethyl)-6-(trifluoromethyl)-5,6-dihydro-4H-1,3-oxazin-2-amine]
7.23 | Cc1cc(C#Cc2ccc(F)c([C@]3(C)C[C@@H](C(F)(F)F)OC(N)=N3)c2)sn1 [Example 65, (4S,6S)-4-(2-Fluoro-5-((3-methylisothiazol-5-yl)ethynyl)phenyl)-4-methyl-6-(trifluoromethyl)-5,6-dihydro-4H-1,3-oxazin-2-amine]
6.70 | C[C@@]1(c2cc(C#Cc3ccc(C#N)cc3)ccc2F)C[C@@H](C(F)(F)F)OC(N)=N1 [Example 66, 4-((3-((4S,6S)-2-Amino-4-methyl-6-(trifluoromethyl)-5,6-dihydro-4H-1,3-oxazin-4-yl)-4-fluorophenyl)ethynyl)benzonitrile]
6.02 | C[C@@]1(c2cc(C#Cc3ncc(C#N)s3)ccc2F)C[C@@H](C(F)(F)F)OC(N)=N1 [Example 67, 2-((3-((4S,6S)-2-Amino-4-methyl-6-(trifluoromethyl)-5,6-dihydro-4H-1,3-oxazin-4-yl)-4-fluorophenyl)ethynyl)thiazole-5-carbonitrile]
6.80 | C[C@@]1(c2cc(C#Cc3nn(C(F)F)cc3Cl)ccc2F)C[C@@H](C(F)(F)F)OC(N)=N1 [Example 68, (4S,6S)-4-(5-((4-chloro-1-(difluoromethyl)-1H-pyrazol-3-yl)ethynyl)-2-fluorophenyl)-4-methyl-6-(trifluoromethyl)-5,6-dihydro-4H-1,3-oxazin-2-amine]
6.89 | Cc1cc(F)c([C@]2(C)C[C@@H](C(F)(F)F)OC(N)=N2)cc1C#Cc1ncc(C#N)cc1Cl [Example 69, 6-((5-((4S,6S)-2-Amino-4-methyl-6-(trifluoromethyl)-5,6-dihydro-4H-1,3-oxazin-4-yl)-4-fluoro-2-methylphenyl)ethynyl)-5-chloronicotinonitrile]
6.24 | Cc1cc(F)c([C@]2(C)C[C@@H](C(F)(F)F)OC(N)=N2)cc1C#Cc1ccc(C#N)cn1 [Example 70, 6-((5-((4S,6S)-2-Amino-4-methyl-6-(trifluoromethyl)-5,6-dihydro-4H-1,3-oxazin-4-yl)-4-fluoro-2-methylphenyl)ethynyl)nicotinonitrile]
6.74 | Cc1cc(F)c([C@]2(C)C[C@@H](C(F)(F)F)OC(N)=N2)cc1C#Cc1nn(C(F)F)cc1Cl [Example 71, (4S,6S)-4-(5-((4-Chloro-1-(difluoromethyl)-1H-pyrazol-3-yl)ethynyl)-2-fluoro-4-methylphenyl)-4-methyl-6-(trifluoromethyl)-5,6-dihydro-4H-1,3-oxazin-2-amine]
6.96 | Cc1cc(F)c([C@]2(C)C[C@@H](C(F)(F)F)OC(N)=N2)cc1C#Cc1ncc(Cl)cn1 [Example 72, (4S,6S)-4-(5-((5-Chloropyrimidin-2-yl)ethynyl)-2-fluoro-4-methylphenyl)-4-methyl-6-(trifluoromethyl)-5,6-dihydro-4H-1,3-oxazin-2-amine]
5.89 | Cc1cc(F)c([C@]2(C)C[C@@H](C(F)(F)F)OC(N)=N2)cc1-c1cnccc1F [Example 73, (4S,6S)-4-(2-Fluoro-5-(4-fluoropyridin-3-yl)-4-methylphenyl)-4-methyl-6-(trifluoromethyl)-5,6-dihydro-4H-1,3-oxazin-2-amine]
5.45 | Cc1cc(F)c([C@]2(C)C[C@@H](C(F)(F)F)OC(N)=N2)cc1-c1cccc(C#N)c1F [Example 74, 5′-((4S,6S)-2-Amino-4-methyl-6-(trifluoromethyl)-5,6-dihydro-4H-1,3-oxazin-4-yl)-2,4′-difluoro-2′-methylbiphenyl-3-carbonitrile]
5.84 | C[C@@]1(c2cc(C#Cc3ccc(Cl)cc3)ccc2F)C[C@@H](C(F)(F)F)OC(N)=N1 [Example 75, (4S,6S)-4-(5-((4-Chlorophenyl)ethynyl)-2-fluorophenyl)-4-methyl-6-(trifluoromethyl)-5,6-dihydro-4H-1,3-oxazin-2-amine]
5.72 | C[C@@]1(c2cc(C#Cc3ccc(Cl)nc3)ccc2F)C[C@@H](C(F)(F)F)OC(N)=N1 [Example 76, (4S,6S)-4-[5-[2-(6-Chloropyridin-3-yl)ethynyl]-2-fluorophenyl]-4-methyl-6-(trifluoromethyl)-5,6-dihydro-1,3-oxazin-2-amine]
6.74 | C[C@@]1(c2cc(-c3cn(-c4ccc(C#N)cn4)nn3)ccc2F)C[C@@H](C(F)(F)F)OC(N)=N1 [Example 77, 6-(4-(3-((4S,6S)-2-Amino-4-methyl-6-(trifluoromethyl)-5,6-dihydro-4H-1,3-oxazin-4-yl)-4-fluorophenyl)-1H-1,2,3-triazol-1-yl)nicotinonitrile]
